Laboratory results reported in PubChem BioAssay (NCI).
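Assay format: 96-well plates, 48-hour exposure. TGI is the concentration that stops growth completely.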

Tests used:
Experiment in all cases: growth of human tumour cells (NCI), 48 h
HT29 colon = tested on: HT29 colon
SNB-75 CNS = tested on: SNB-75 CNS
CAKI-1 renal = tested on: CAKI-1 renal
A498 renal = tested on: A498 renal
SK-MEL-2 melanoma = tested on: SK-MEL-2 melanoma
SNB-19 CNS = tested on: SNB-19 CNS
U251 CNS = tested on: U251 CNS
SF-539 CNS = tested on: SF-539 CNS
A549 NSCLC = tested on: A549 NSCLC
OVCAR-4 ovarian = tested on: OVCAR-4 ovarian
SN12C renal = tested on: SN12C renal
HS 578T breast = tested on: HS 578T breast
OVCAR-3 ovarian = tested on: OVCAR-3 ovarian
SK-MEL-28 melanoma = tested on: SK-MEL-28 melanoma
HCT-15 colon = tested on: HCT-15 colon
UACC-257 melanoma = tested on: UACC-257 melanoma
COLO 205 colon = tested on: COLO 205 colon
T-47D breast = tested on: T-47D breast
SK-OV-3 ovarian = tested on: SK-OV-3 ovarian
OVCAR-8 ovarian = tested on: OVCAR-8 ovarian
SK-MEL-5 melanoma = tested on: SK-MEL-5 melanoma
HL-60(TB) leukemia = tested on: HL-60(TB) leukemia
MOLT-4 leukemia = tested on: MOLT-4 leukemia
NCI-H23 lung = tested on: NCI-H23 lung
IGROV1 ovarian = tested on: IGROV1 ovarian
SF-268 CNS = tested on: SF-268 CNS
MDA-MB-231 breast = tested on: MDA-MB-231 breast
MDA-MB-435 = tested on: MDA-MB-435
MDA-N = tested on: MDA-N
K-562 leukemia = tested on: K-562 leukemia
786-0 renal = tested on: 786-0 renal
NCI-H226 lung = tested on: NCI-H226 lung
LOX IMVI melanoma = tested on: LOX IMVI melanoma
SR leukemia = tested on: SR leukemia
CCRF-CEM leukemia = tested on: CCRF-CEM leukemia
MALME-3M melanoma = tested on: MALME-3M melanoma
RPMI-8226 leukemia = tested on: RPMI-8226 leukemia
UACC-62 melanoma = tested on: UACC-62 melanoma
UO-31 renal = tested on: UO-31 renal
NCI/ADR-RES ovarian = tested on: NCI/ADR-RES ovarian
RXF 393 renal = tested on: RXF 393 renal
HOP-92 NSCLC = tested on: HOP-92 NSCLC
HOP-62 NSCLC = tested on: HOP-62 NSCLC
PC-3 prostate = tested on: PC-3 prostate
TK-10 renal = tested on: TK-10 renal
HCT-116 colon = tested on: HCT-116 colon
KM12 colon = tested on: KM12 colon
DU-145 prostate = tested on: DU-145 prostate
NCI-H460 lung = tested on: NCI-H460 lung
SW-620 colon = tested on: SW-620 colon
MCF7 breast = tested on: MCF7 breast
M14 melanoma = tested on: M14 melanoma
BT-549 breast = tested on: BT-549 breast
OVCAR-5 ovarian = tested on: OVCAR-5 ovarian
NCI-H522 lung = tested on: NCI-H522 lung
EKVX NSCLC = tested on: EKVX NSCLC
ACHN renal = tested on: ACHN renal
SF-295 CNS = tested on: SF-295 CNS

NS(=O)(=O)c1ccc(NC(=O)c2cc([N+](=O)[O-])cc([N+](=O)[O-])c2)cc1
TGI (HT29 colon): > 100 µM
TGI (SNB-75 CNS): > 100 µM
TGI (CAKI-1 renal): > 100 µM
TGI (A498 renal): > 100 µM
TGI (SK-MEL-2 melanoma): > 100 µM
TGI (SNB-19 CNS): > 100 µM
TGI (U251 CNS): > 100 µM
TGI (SF-539 CNS): > 100 µM
TGI (A549 NSCLC): > 100 µM
TGI (OVCAR-4 ovarian): 79.2 µM
TGI (SN12C renal): 90.7 µM
TGI (HS 578T breast): > 100 µM
TGI (OVCAR-3 ovarian): 84.9 µM
TGI (SK-MEL-28 melanoma): > 100 µM
TGI (HCT-15 colon): > 100 µM
TGI (UACC-257 melanoma): 32 µM
TGI (COLO 205 colon): 51.8 µM
TGI (T-47D breast): 85.8 µM
TGI (SK-OV-3 ovarian): > 100 µM
TGI (OVCAR-8 ovarian): > 100 µM
TGI (SK-MEL-5 melanoma): > 100 µM
TGI (HL-60(TB) leukemia): 97.4 µM
TGI (MOLT-4 leukemia): > 100 µM
TGI (NCI-H23 lung): > 100 µM
TGI (IGROV1 ovarian): 79.9 µM
TGI (SF-268 CNS): > 100 µM
TGI (MDA-MB-231 breast): > 100 µM
TGI (MDA-MB-435): 35 µM
TGI (MDA-N): 47.2 µM
TGI (K-562 leukemia): > 100 µM
TGI (786-0 renal): > 100 µM
TGI (NCI-H226 lung): > 100 µM
TGI (LOX IMVI melanoma): 78.1 µM
TGI (SR leukemia): > 100 µM
TGI (CCRF-CEM leukemia): > 100 µM
TGI (MALME-3M melanoma): 57.2 µM
TGI (RPMI-8226 leukemia): > 100 µM
TGI (UACC-62 melanoma): 54.2 µM
TGI (UO-31 renal): > 100 µM
TGI (NCI/ADR-RES ovarian): > 100 µM
TGI (RXF 393 renal): > 100 µM
TGI (HOP-92 NSCLC): 91.3 µM
TGI (HOP-62 NSCLC): > 100 µM
TGI (PC-3 prostate): 86.8 µM
TGI (TK-10 renal): > 100 µM
TGI (HCT-116 colon): > 100 µM
TGI (KM12 colon): > 100 µM
TGI (DU-145 prostate): > 100 µM
TGI (NCI-H460 lung): > 100 µM
TGI (SW-620 colon): > 100 µM
TGI (MCF7 breast): 53.9 µM
TGI (M14 melanoma): > 100 µM
TGI (BT-549 breast): > 100 µM

COc1c(Cl)ccc(Cl)c1C(=O)NNC(=O)c1c(Cl)c(Cl)c(Cl)c(Cl)c1-c1nc2ccc(C(=O)c3ccccc3)cc2[nH]1
TGI (HT29 colon): > 100 µM
TGI (SNB-75 CNS): > 100 µM
TGI (CAKI-1 renal): > 100 µM
TGI (A498 renal): > 100 µM
TGI (SK-MEL-2 melanoma): > 100 µM
TGI (SNB-19 CNS): > 100 µM
TGI (U251 CNS): > 100 µM
TGI (SF-539 CNS): > 100 µM
TGI (A549 NSCLC): > 100 µM
TGI (OVCAR-4 ovarian): > 100 µM
TGI (SN12C renal): > 100 µM
TGI (HS 578T breast): > 100 µM
TGI (OVCAR-3 ovarian): > 100 µM
TGI (SK-MEL-28 melanoma): > 100 µM
TGI (HCT-15 colon): > 100 µM
TGI (UACC-257 melanoma): > 100 µM
TGI (COLO 205 colon): > 100 µM
TGI (T-47D breast): > 100 µM
TGI (SK-OV-3 ovarian): > 100 µM
TGI (OVCAR-8 ovarian): > 100 µM
TGI (SK-MEL-5 melanoma): > 100 µM
TGI (HL-60(TB) leukemia): > 100 µM
TGI (MOLT-4 leukemia): > 100 µM
TGI (NCI-H23 lung): > 100 µM
TGI (IGROV1 ovarian): > 100 µM
TGI (SF-268 CNS): > 100 µM
TGI (OVCAR-5 ovarian): > 100 µM
TGI (MDA-MB-231 breast): > 100 µM
TGI (MDA-MB-435): > 100 µM
TGI (MDA-N): > 100 µM
TGI (K-562 leukemia): > 100 µM
TGI (786-0 renal): > 100 µM
TGI (NCI-H226 lung): > 100 µM
TGI (NCI-H522 lung): > 100 µM
TGI (LOX IMVI melanoma): > 100 µM
TGI (EKVX NSCLC): > 100 µM
TGI (SR leukemia): > 100 µM
TGI (CCRF-CEM leukemia): > 100 µM
TGI (MALME-3M melanoma): > 100 µM
TGI (RPMI-8226 leukemia): 90.8 µM
TGI (UO-31 renal): > 100 µM
TGI (NCI/ADR-RES ovarian): > 100 µM
TGI (RXF 393 renal): > 100 µM
TGI (HOP-92 NSCLC): > 100 µM
TGI (HOP-62 NSCLC): > 100 µM
TGI (PC-3 prostate): > 100 µM
TGI (TK-10 renal): > 100 µM
TGI (ACHN renal): > 100 µM
TGI (HCT-116 colon): > 100 µM
TGI (KM12 colon): > 100 µM
TGI (DU-145 prostate): > 100 µM
TGI (SW-620 colon): > 100 µM
TGI (SF-295 CNS): > 100 µM
TGI (MCF7 breast): > 100 µM
TGI (M14 melanoma): > 100 µM
TGI (BT-549 breast): > 100 µM
